From US4233304A, “Pyridoxine derivatives” (Crinos Industria Farmacobiologica S.p.A., priority 1978, dated 1980)

Experiments:
[1] = Anti-inflammatory activity, caraganin-edema test according to Winter et al; format: in vivo; conditions: rat, vs controls
Source text: As referred above, the inventive compound of the instant invention show anti-inflammatory activity and moreover may show, although not necessarily, also analgesic and/or anti-pyretic activity. The anti-inflammatory activity of the novel compounds of the instant invention has been confirmed by means of the caraganin-edema test on the rat.
Caraganin-edema test according to Winter et al (Proc. Soc. Exp. Biol. Med., 111, 544, 1962) in the normal rat. […]

[2] = Acute toxicity per os, single dose, LD50; conditions: mouse, in vivo, po
Protocol: The acute toxicity has been determined by administering the substances per os in a sole dose to the mouse after 18 hours of fasting. The LD50 has been determined according to Litchfield and Wilcoxon (J. Pharmacol. Exp. Ther. 96, 99, 1949).

[3] = Analgesic activity, test of Randall and Selitto; format: in vivo; conditions: rat, variation from algogenic stimulus vs controls
Protocol: Test of Randall and Selitto (Arch. Ing. Pharmacodyn., 111, 409, 1957) on the rat. The analgesic activity is expressed as a percent variation from the algogenic stimulus, after 3 and 5 hours with respect to the controls.

in vivo = conditions: rat, po
Protocol: The ulcer-causing activity has been determined by administering the substances per os to rats which have fasted 18 hours and evaluating the presence of gastric lesions 7 hours after the treatment. The UD50 has been determined according to Litchfield and Wilcoxon (J. Pharmacol. Exp. Ther. 96, 99, 1949).

mouse = conditions: footnote (1) Adams S.S. et al., Tox. Appl. Pharmacol., 15, 310, 1969; cited from earlier work

SMILES | Anti-inflammatory Inhibition ([1]; 6.25 mg/kg per os, 3 hrs) | Anti-inflammatory Inhibition ([1]; 6.25 mg/kg per os, 5 hrs) | Anti-inflammatory Inhibition ([1]; 12.5 mg/kg per os, 3 hrs) | Anti-inflammatory Inhibition ([1]; 12.5 mg/kg per os, 5 hrs) | Anti-inflammatory Inhibition ([1]; 25 mg/kg per os, 3 hrs) | Anti-inflammatory Inhibition ([1]; 25 mg/kg per os, 5 hrs) | Anti-inflammatory Inhibition ([1]; 50 mg/kg per os, 3 hrs) | Anti-inflammatory Inhibition ([1]; 50 mg/kg per os, 5 hrs) | LD50 [2] | Analgesic activity Variation ([3]; 12.5 mg/kg per os, 3 hrs) | Analgesic activity Variation ([3]; 12.5 mg/kg per os, 5 hrs) | Analgesic activity Variation ([3]; 50 mg/kg per os, 3 hrs) | Analgesic activity Variation ([3]; 50 mg/kg per os, 5 hrs) | TD50 at 7 h (in vivo) | Anti-inflammatory Inhibition ([1]; 100 mg/kg per os, 3 hrs) | Anti-inflammatory Inhibition ([1]; 100 mg/kg per os, 5 hrs) | LD50 per os/mouse (mouse)
Cc1ncc(COC(=O)C(C)c2ccc(CC(C)C)cc2)c(CO)c1O (stereo not drawn) [2-(4-isobutyl-phenyl)-propionic pyridoxine 5-ester] | 27.1% | 24.8% | 41.1% | 28.4% | 48.6% | 37.6% | 55.1% | 42% | > 2000 mg/kg | +61.2% | +71.4% | +129.6% | +134.3% | 365 mg/kg |  |  | 
Cc1ncc(COC(=O)C(C)c2ccc(CC(C)C)cc2)c2c1OC(C)(C)OC2 (stereo not drawn) [2-(4-isobutylphenyl)-propionic isopropylidenepyridoxine 5-ester] |  |  | 19.6% | 18.3% | 13.1% | 12.8% | 43.9% | 39.4% | > 2200 mg/kg | +77.5% | +39.0% | +122.5% | +78.1% | > 400 mg/kg | 60.7% | 42.2% | 
CC(C)Cc1ccc(C(C)C(=O)O)cc1 (stereo not drawn) [2-(4-isobutylphenyl)-propionic acid, reference compound] |  |  | 33.6% | 16.5% | 43.9% | 19.3% | 54.2% | 26.6% |  | +86.7% | +83.8% | +146.9% | +69.5% | 38 mg/kg | 49.5% | 32.1% | 800 mg/kg
